From the NIST ThermoML archive (doi:10.1007/s10765-012-1370-2)

Assay: xn = mol fraction of the nth substance listed
Conditions: Liquid, Bellows volumetry

CCC [propane] + O=C=O
mass density [kg/m3]
Conditions | x2 = 0.1744 | x2 = 0.3863 | x2 = 0.5837 | x2 = 0.7732
360 K, 60000 kPa | – | 617.66 | 677.69 | 755.67
360 K, 70000 kPa | 581.28 | 633.44 | 697.37 | 780.83
360 K, 80000 kPa | 592.36 | 647.34 | 714.31 | 802.2
360 K, 90000 kPa | 602.5 | 659.51 | 729.21 | 821
360 K, 100000 kPa | 611.43 | 670.54 | 742.72 | 837.52
360 K, 120000 kPa | 627.94 | 690.06 | 766.21 | 866.62
360 K, 140000 kPa | 642.06 | 706.76 | 786.28 | 891.18
360 K, 160000 kPa | 654.39 | 721.47 | 803.84 | 912.47
360 K, 180000 kPa | 665.89 | 734.92 | 819.85 | 931.8
360 K, 200000 kPa | 676.04 | 746.96 | 833.79 | 948.91
400 K, 20000 kPa | – | 416.94 | – | –
400 K, 30000 kPa | 463.97 | 484.73 | 504.63 | 526.28
400 K, 40000 kPa | 493.75 | 524.65 | 558.9 | 600.44
400 K, 50000 kPa | 515.97 | 553.29 | 596.39 | 650.25
400 K, 60000 kPa | 533.68 | 575.8 | 625.2 | 687.92
400 K, 70000 kPa | 548.87 | 594.51 | 648.89 | 718.31
400 K, 80000 kPa | 561.96 | 610.56 | 668.81 | 743.76
400 K, 90000 kPa | 573.37 | 624.68 | 686.29 | 765.81
400 K, 100000 kPa | 583.87 | 637.16 | 701.68 | 785.16
400 K, 120000 kPa | 601.92 | 658.95 | 728.37 | 818.25
400 K, 140000 kPa | 617.62 | 677.58 | 750.66 | 845.81
400 K, 160000 kPa | 631.49 | 693.82 | 770.18 | 869.72
400 K, 180000 kPa | 643.58 | 708.41 | 787.61 | 890.88
400 K, 200000 kPa | 654.96 | 721.61 | 803.17 | 909.94
440 K, 30000 kPa | – | 425.58 | – | –
440 K, 40000 kPa | 453.4 | 475.39 | 498.14 | 524.14
440 K, 50000 kPa | 480.3 | 510.05 | 543.19 | 582.81
440 K, 60000 kPa | 501.53 | 536.68 | 577.1 | 626.71
440 K, 70000 kPa | 518.95 | 558.53 | 604.68 | 661.78
440 K, 80000 kPa | 533.91 | 576.94 | 627.72 | 690.97
440 K, 90000 kPa | 546.96 | 592.95 | 647.49 | 715.85
440 K, 100000 kPa | 558.7 | 607.11 | 664.74 | 737.47
440 K, 120000 kPa | 578.72 | 631.24 | 694.36 | 774.63
440 K, 140000 kPa | 595.88 | 651.66 | 719.21 | 805.33
440 K, 160000 kPa | 610.94 | 669.67 | 740.68 | 831.52
440 K, 180000 kPa | 624.2 | 685.33 | 759.39 | 854.41
440 K, 200000 kPa | 636.19 | 699.19 | 776.34 | 875.02
